Publication PMC3377984 (Journal of Molecular Neuroscience, 2012)

Columns and labels:
rat hippocampal cultures = assay: Neuroprotection from acute glutamate toxicity, CFDA neuronal viability assay; assay type: cell-based; conditions: initial testing of the core compound; assay not specified
Rat MES = assay: Maximal electroshock test; assay type: in vivo; conditions: at 30 mg/kg
Mouse MES = assay: Maximal electroshock test; assay type: in vivo; conditions: at 100 mg/kg
Mouse 6-Hz test = assay: 6-Hz seizure test, mouse; assay type: in vivo; conditions: at 100 mg/kg
Mouse scPTZ = assay: Subcutaneous pentylenetetrazol; assay type: in vivo
[1] = Caco-2 bidirectional permeability assay; assay type: in vitro ADME, human; conditions: human
Caco-2 cells = assay: Caco-2 bidirectional permeability assay; assay type: in vitro ADME, human

Compound | potency for neuroprotection (rat hippocampal cultures) | Rat MES (oral), animals protected/tested (Rat MES) | Mouse MES (i.p.), animals protected/tested (Mouse MES) | Mouse 6-Hz test (i.p.), animals protected/tested (Mouse 6-Hz test) | Mouse scPTZ (s.c. EC50) (Mouse scPTZ; PTZ 85 mg/kg s.c.) | activity in the mouse pentylenetetrazol model (Mouse scPTZ; at 300 mg/kg i.p.) | Papp A→B at 5 µM [1] | Permeability classification (Caco-2 cells) | Papp B→A at 5 µM [1] | efflux ratio at 5 µM [1] | Significant efflux (Caco-2 cells)
NS(=O)(=O)NCC(O)c1ccccc1F (stereo not shown) [AND-171, 2-(2-Fluorophenyl)-2-hydroxyethylsulfamide] | 30 to 100 nM | 1/4 at 30 mg/kg | 1/3 at 100 mg/kg | 1/4 at 100 mg/kg | >300 mg/kg | no demonstrated activity |  |  |  |  | 
CC(C)NCC(O)COc1cccc2ccccc12 (stereo not shown) [Propranolol control, Propranolol] |  |  |  |  |  |  | 17.1 ×10⁻⁶ cm/s | High |  |  | 
C[C@H]1O[C@@H](O[C@H]2[C@@H](O)C[C@H](O[C@H]3[C@@H](O)C[C@H](O[C@H]4CC[C@@]5(C)[C@H](CC[C@@H]6[C@@H]5C[C@@H](O)[C@]5(C)[C@@H](C7=CC(=O)OC7)CC[C@]65O)C4)O[C@@H]3C)O[C@@H]2C)C[C@H](O)[C@@H]1O [Digoxin control, Digoxin] |  |  |  |  |  |  | 0.62 ×10⁻⁶ cm/s | Low | 12.5 ×10⁻⁶ cm/s | 20.2 | Yes
